Test results as given in paper PMC5856786, “A DHODH inhibitor increases p53 synthesis and enhances tumor cell killing by p53 degradation blockage” (Nature Communications, 2018).
Where a name gives a salt, the structure may show the parent alone.

Biological target: recombinant human DHODH (Homo sapiens, UniProt Q02127)
Experiment: Endpoint DHODH enzyme assay (coenzyme Q10, DCIP)
Type: biochemical
Set-up: purchased Prospecbio ENZ-642
Details: compound at 10 µM; Supplementary Table 5, 20,000 compound library
Method: In Supplementary Tables 5 and 6, endpoint assays were performed with 10 nM recombinant human DHODH (#ENZ-642, Prospecbio). The reaction mixture consisted of 624.6 µM DL-dihydroorotic acid, 66.4 µM coenzyme Q10, 66.4 µM 2,6-dichlorophenolindophenol sodium salt (DCIP) (all reagents purchased from Sigma-Aldrich) in enzyme buffer (50 mM Tris-HCl, pH 8.0, 0.1% Triton X-100, 150 mM KCl). Loss in absorbance by DCIP was measured at 595 nm after incubation at RT for 60 min.

Sequence of recombinant human DHODH (Q02127 31-395 limits assumed): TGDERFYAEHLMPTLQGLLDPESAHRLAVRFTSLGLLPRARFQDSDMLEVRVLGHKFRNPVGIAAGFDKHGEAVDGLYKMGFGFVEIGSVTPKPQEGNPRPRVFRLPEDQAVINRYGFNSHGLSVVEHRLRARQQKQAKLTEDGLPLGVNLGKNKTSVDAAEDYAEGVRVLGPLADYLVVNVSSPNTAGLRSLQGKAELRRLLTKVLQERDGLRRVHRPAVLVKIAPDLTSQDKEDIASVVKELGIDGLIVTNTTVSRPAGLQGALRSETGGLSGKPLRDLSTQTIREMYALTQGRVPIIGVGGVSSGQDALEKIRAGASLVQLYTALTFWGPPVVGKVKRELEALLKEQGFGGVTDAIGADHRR

Structure (SMILES)	remaining activity at 10 µM [%]	remaining DHODH activity (%) Average [%]
Cc1ccccc1NC(=S)NC(=O)c1cccc2c(Br)cccc12 [compound 6592864, 5-bromo-N-{[(2-methylphenyl)amino]carbonothioyl}-1-naphthamide]	72.2	–
O=c1oc2ccccc2cc1-c1cn2cc(Cl)ccc2n1 [compound 6623100, 3-(6-chloroimidazo[1,2-a]pyridin-2-yl)-2H-chromen-2-one]	96.3	–

Second part, the compound after the results:

remaining activity at 10 µM [%]	remaining DHODH activity (%) Average [%]	Structure (SMILES)
93.2	–	COc1ccc(OC)c(C(C)NC(=O)c2ccco2)c1 (centres unmarked) [compound 6912406, N-[1-(2,5-dimethoxyphenyl)ethyl]-2-furamide]
79.9	–	COc1cc(CNc2ccc(C)c(Cl)c2)cc(Cl)c1OC [compound 7574753, (3-chloro-4,5-dimethoxybenzyl)(3-chloro-4-methylphenyl)amine]
79	–	CCN(CC)c1ccc(NC(=S)NC(=O)c2cccc(C)c2OC)cc1 [compound 7578012, N-({[4-(diethylamino)phenyl]amino}carbonothioyl)-2-methoxy-3-methylbenzamide]
92.7	–	CCOc1cccc2c(C)nc(Nc3nc(=O)c4c([nH]3)CCCC4)nc12 [compound 7587351, 2-[(8-ethoxy-4-methyl-2-quinazolinyl)amino]-5,6,7,8-tetrahydro-4(1H)-quinazolinone]
103	–	O=S(=O)(CCSc1nc2ccccc2o1)c1nc2ccccc2s1 [compound 7617239, 2-{[2-(1,3-benzothiazol-2-ylsulfonyl)ethyl]thio}-1,3-benzoxazole]
–	72.65	CCc1cccc(C)c1NC(=O)CSc1nc2ccccc2c(=O)n1-c1cccc2ccccc12 [compound 7638934, N-(2-ethyl-6-methylphenyl)-2-{[3-(1-naphthyl)-4-oxo-3,4-dihydro-2-quinazolinyl]thio}acetamide]
11	–	O=C(Nc1nc2c(s1)CCCC2)C(=O)c1c[nH]c2ccccc12 [compound 7690424, 2-(1H-indol-3-yl)-2-oxo-N-(4,5,6,7-tetrahydro-1,3-benzothiazol-2-yl)acetamide]
–	104.27	CC1=C(C(=O)Nc2ccc(F)cc2)C(c2ccccc2OCc2ccccc2)C2=C(CCCC2=O)N1 (centres unmarked) [compound 7705624, 4-[2-(benzyloxy)phenyl]-N-(4-fluorophenyl)-2-methyl-5-oxo-1,4,5,6,7,8-hexahydro-3-quinolinecarboxamide]
–	95.89	CCOC(=O)C1=C(C)NC2=C(C(=O)CC(c3ccco3)C2)C1c1cccs1 (centres unmarked) [compound 7706732, ethyl 7-(2-furyl)-2-methyl-5-oxo-4-(2-thienyl)-1,4,5,6,7,8-hexahydro-3-quinolinecarboxylate]
98.2	–	CCOc1cc(C=Cc2ccc3cccc(OC(=O)CC)c3n2)ccc1OC(=O)CC [compound 7706999, 2-{2-[3-ethoxy-4-(propionyloxy)phenyl]vinyl}-8-quinolinyl propionate]
-8.22	–	Cc1ccc(CSCC(=O)Nc2ccccc2C(=O)O)cc1 [compound 7723007, 2-({[(4-methylbenzyl)thio]acetyl}amino)benzoic acid]
98.2	–	O=C(Nc1cc(C(F)(F)F)cc(C(F)(F)F)c1)c1c(F)c(F)c(F)c(F)c1F [compound 7739721, N-[3,5-bis(trifluoromethyl)phenyl]-2,3,4,5,6-pentafluorobenzamide]
77.3	–	Oc1ccccc1-c1nc(C=Cc2cccs2)n[nH]1 [compound 7776857, 2-{3-[2-(2-thienyl)vinyl]-1H-1,2,4-triazol-5-yl}phenol]
73.5	–	Cc1cc(O)ccc1NC(=O)c1ccc(-c2ccccc2)cc1 [compound 7782544, N-(4-hydroxy-2-methylphenyl)-4-biphenylcarboxamide]
92.2	–	NC(=O)c1ccccc1NC(=O)Nc1ccccc1C(F)(F)F [compound 7794325, 2-[({[2-(trifluoromethyl)phenyl]amino}carbonyl)amino]benzamide]
88.1	–	CC(C)Oc1ccccc1C1CC(=O)Nc2cc3c(cc21)OCCO3 (centres unmarked) [compound 7800701, 9-(2-isopropoxyphenyl)-2,3,8,9-tetrahydro[1,4]dioxino[2,3-g]quinolin-7(6H)-one]
100	–	COC(=O)c1cccc(NC(=S)Nc2cc(Cl)ccc2OC)c1 [compound 7801595, methyl 3-({[(5-chloro-2-methoxyphenyl)amino]carbonothioyl}amino)benzoate]
103	–	O=C1CC(c2ccccc2OCc2ccccc2)c2cc3c(cc2N1)OCCO3 (centres unmarked) [compound 7834586, 9-[2-(benzyloxy)phenyl]-2,3,8,9-tetrahydro[1,4]dioxino[2,3-g]quinolin-7(6H)-one]
3.65	–	Cc1cc(=O)oc2cc(NC(=S)N3c4ccccc4CC3C)ccc12 (centres unmarked) [compound 7841649, 2-methyl-N-(4-methyl-2-oxo-2H-chromen-7-yl)-1-indolinecarbothioamide]

Same assay, conditions: compound at 10 µM; Supplementary Table 6, 30,000 compound library

remaining activity at 10 µM [%]	Structure (SMILES)
57.9	O=[N+]([O-])c1ccc2[nH]c3c(c2c1)CCCC3NC1Cc2ccccc2C1 (centres unmarked) [compound 5781444, N-(2,3-dihydro-1H-inden-2-yl)-6-nitro-2,3,4,9-tetrahydro-1H-carbazol-1-amine]
60.5	CC1CCC(NC2CCCc3c2[nH]c2ccc([N+](=O)[O-])cc32)C1 (centres unmarked) [compound 5781446, N-(3-methylcyclopentyl)-6-nitro-2,3,4,9-tetrahydro-1H-carbazol-1-amine]
56.8	CC1CCC(NC2CCCc3c2[nH]c2ccc([N+](=O)[O-])cc32)CC1 (centres unmarked) [compound 5781447, N-(4-methylcyclohexyl)-6-nitro-2,3,4,9-tetrahydro-1H-carbazol-1-amine]
90.2	CC(C)NC1CCCc2c1[nH]c1ccc([N+](=O)[O-])cc21 (centres unmarked) [compound 5781470, N-isopropyl-6-nitro-2,3,4,9-tetrahydro-1H-carbazol-1-amine]
101	COc1ccc(C=NN2CCN(Cc3ccccc3)CC2)c(OC)c1 [compound 5783994, 4-benzyl-N-(2,4-dimethoxybenzylidene)-1-piperazinamine]
97.6	Cc1cccc(Cc2cnc(NC(=O)c3ccc(Br)cc3)s2)c1 [compound 5852371, 4-bromo-N-[5-(3-methylbenzyl)-1,3-thiazol-2-yl]benzamide]
99.2	COc1ccccc1NC(=O)C1c2ccccc2Oc2ccccc21 [compound 5867214, N-(2-methoxyphenyl)-9H-xanthene-9-carboxamide]
27.3	Cc1ccc2[nH]c3c(c2c1)CCCC3NCc1ccccc1 (centres unmarked) [compound 5869604, N-benzyl-6-methyl-2,3,4,9-tetrahydro-1H-carbazol-1-amine hydrochloride]
99.6	COc1ccc(Cl)cc1NC1=C(Cl)C(=O)N(c2cccc(C)c2C)C1=O [compound 6149306, 3-chloro-4-[(5-chloro-2-methoxyphenyl)amino]-1-(2,3-dimethylphenyl)-1H-pyrrole-2,5-dione]
101	CC(C)Oc1ccc(C(=O)NC(=S)Nc2ccc(N3CCCCC3)cc2)cc1 [compound 6497060, 4-isopropoxy-N-({[4-(1-piperidinyl)phenyl]amino}carbonothioyl)benzamide]
84.1	CCOc1ccc(NC(=S)NC(=O)c2ccc(C(C)(C)C)cc2)cc1 [compound 6501326, 4-tert-butyl-N-{[(4-ethoxyphenyl)amino]carbonothioyl}benzamide]
97.8	COc1ccc(NC(=S)NC(=O)c2ccc(C(C)(C)C)cc2)c(OC)c1 [compound 6513572, 4-tert-butyl-N-{[(2,4-dimethoxyphenyl)amino]carbonothioyl}benzamide]
88.9	CC(C)(C)c1ccc(C(=O)NC(=S)Nc2cccc([N+](=O)[O-])c2)cc1 [compound 6515740, 4-tert-butyl-N-{[(3-nitrophenyl)amino]carbonothioyl}benzamide]
63.2	CC(C)(C)c1ccc(C(=O)NC(=S)Nc2cccc(NC(=O)c3ccccc3)c2)cc1 [compound 6519439, N-({[3-(benzoylamino)phenyl]amino}carbonothioyl)-4-tert-butylbenzamide]
51	Cc1cc(O)c(NC(=S)NC(=O)c2ccc(C(C)(C)C)cc2)cc1C [compound 6611243, 4-tert-butyl-N-{[(2-hydroxy-4,5-dimethylphenyl)amino]carbonothioyl}benzamide]
78.8	COc1cc(C=C2N=C(SC)SC2=O)cc(Br)c1OCc1ccccc1 [compound 6638116, 4-[4-(benzyloxy)-3-bromo-5-methoxybenzylidene]-2-(methylthio)-1,3-thiazol-5(4H)-one]
74.9	CSC1=NC(=Cc2ccc(OCc3ccccc3)cc2)C(=O)S1 [compound 6638197, 4-[4-(benzyloxy)benzylidene]-2-(methylthio)-1,3-thiazol-5(4H)-one]
66	c1ccc(OCCNc2ccc3ccccc3c2)cc1 [compound 6641022, 2-naphthyl(2-phenoxyethyl)amine]

Structure (SMILES)	remaining activity at 10 µM [%]
COc1ccccc1CC(C)NC1CCCc2c1[nH]c1ccc([N+](=O)[O-])cc21 (centres unmarked) [compound 5781453, N-[2-(2-methoxyphenyl)-1-methylethyl]-6-nitro-2,3,4,9-tetrahydro-1H-carbazol-1-amine]	52.4
CC(Cc1ccccc1F)NC1CCCc2c1[nH]c1ccc([N+](=O)[O-])cc21 (centres unmarked) [compound 5781454, N-[2-(2-fluorophenyl)-1-methylethyl]-6-nitro-2,3,4,9-tetrahydro-1H-carbazol-1-amine]	55.4
